From the supplement of paper PMC8967900

What was measured:
Experiment in all cases: selective drug sensitivity score (sDSS, relative to normal bone marrow) (sDSS (score)); higher = more potent and effective on the cell line relative to normal bone marrow cells
Settings in all cases: 72 h
[1] = test system: 697
[2] = test system: CCRF-HSB2
[3] = test system: COG-LL-319h
[4] = test system: COG-LL-332h
[5] = test system: HPB-ALL
[6] = test system: JURKAT
[7] = test system: KARPAS-45
[8] = test system: KASUMI-2
[9] = test system: MHH-CALL-2
[10] = test system: MHH-CALL-4
[11] = test system: MN-60
[12] = test system: MOLT-4
[13] = test system: NALL-1
[14] = test system: NALM-16
[15] = test system: P12-ICHIKAWA
[16] = test system: PEER
[17] = test system: PF-382
[18] = test system: RPMI-8402
[19] = test system: SUP-B15
[20] = test system: TMD5
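Note: ALL cell lines in 384-well plates, five doses spanning 10,000-fold, each plate scaled between vehicle and 100 µmol/L benzalkonium chloride controls, sDSS an adapted area-under-curve metric.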

Structure (SMILES)	selective drug sensitivity score [1]	selective drug sensitivity score [2]	selective drug sensitivity score [3]	selective drug sensitivity score [4]	selective drug sensitivity score [5]	selective drug sensitivity score [6]	selective drug sensitivity score [7]	selective drug sensitivity score [8]	selective drug sensitivity score [9]	selective drug sensitivity score [10]	selective drug sensitivity score [11]	selective drug sensitivity score [12]	selective drug sensitivity score [13]	selective drug sensitivity score [14]	selective drug sensitivity score [15]	selective drug sensitivity score [16]	selective drug sensitivity score [17]	selective drug sensitivity score [18]	selective drug sensitivity score [19]	selective drug sensitivity score [20]
Nc1ncnc2c1nc(Cl)n2[C@@H]1O[C@H](CO)[C@@H](O)[C@H]1O [8-chloro-adenosine] (top concentration 50000 nM)	4.1	3.6	4.3	0.9	-4.8	0.3	1.8	-1.8	2.4	1.6	-2.8	3.3	-5.3	-3.1	-2.4	0.5	-1.9	-0.9	7.3	-2.1
CCc1nc(C(N)=O)c(Nc2ccc(N3CCC(N4CCN(C)CC4)CC3)c(OC)c2)nc1NC1CCOCC1 [Gilteritinib] (top concentration 1000 nM)	1.88	0.08	13.6	-2.52	-1.62	-2.52	-2.12	-2.52	-1.32	-2.52	-2.52	-2.52	-2.52	-2.52	-2.52	-2.22	-2.52	-1.32	-2.42	-2.52
CN1CCc2c(c3ccccc3n2Cc2ccc(C(=O)NO)cc2)C1 [Tubastatin_A] (top concentration 10000 nM)	4.46	2.06	8.86	1.46	6.76	0.36	4.46	7.06	3.76	-0.14	2.16	-0.04	8.76	-0.14	0.36	3.36	0.76	1.86	3.46	-0.14
CC1(C)CC[C@]2(NC(=O)C(C)(F)F)CC[C@]3(C)[C@H](C(=O)C=C4[C@@]5(C)C=C(C#N)C(=O)C(C)(C)[C@@H]5CC[C@]43C)[C@@H]2C1 [Omaveloxolone] (top concentration 10000 nM)	4.78	3.78	10.5	3.48	3.58	0.88	1.68	6.38	0.58	1.28	1.08	2.18	3.98	4.58	1.88	4.38	1.08	0.88	8.38	1.48
CC(C)NC(=O)COc1cccc(-c2nc(Nc3ccc4[nH]ncc4c3)c3ccccc3n2)c1 [KD025] (top concentration 5000 nM)	-0.66	-3.86	-1.06	-0.56	-3.26	-3.06	-2.76	-5.06	3.94	1.04	-5.36	-2.76	2.54	-1.16	-4.06	-1.56	1.04	-2.36	2.14	-3.16
CC1CCC(n2c3cnccc3c3cnc(Nc4ccc5c(n4)CCN(C(=O)CO)C5)nc32)CC1 (stereo not given) [AMG-925] (top concentration 1000 nM)	11.4	1.94	6.44	4.34	5.84	4.54	1.84	-0.66	4.94	3.54	-0.66	2.34	-0.16	6.34	3.84	5.54	5.44	5.74	11.7	-0.66
Cc1c(C(=O)Nc2ccc(N3C[C@@H](C)O[C@@H](C)C3)nc2)cccc1-c1ccc(OC(F)(F)F)cc1 [Sonidegib] (top concentration 10000 nM)	1.28	-1.42	4.98	-1.42	3.08	2.48	0.68	-1.42	7.48	2.28	-1.42	1.08	7.58	-3.92	0.38	0.88	2.28	1.88	1.68	-3.92
O=c1[nH]c(C2CCCN2)nc2c1oc1ccc(Cl)cc12 (stereo not given) (top concentration 10000 nM)	6.2	3.7	2	6.7	-2.4	-2.8	0.9	7.2	1	-1.2	-2.7	-2.8	0.8	-1.9	0.1	0.3	2.4	6.2	1.8	-2.8
CNC(=O)c1nn(C)c2c1C(C)(C)Cc1cnc(Nc3ccc(N4CCN(C)CC4)cc3)nc1-2 [Milciclib] (top concentration 10000 nM)	12.5	13.9	7.64	3.24	4.44	4.34	5.04	-2.56	9.54	-0.06	2.04	3.84	-0.86	3.34	2.34	5.84	4.84	5.54	8.14	-1.16
CCc1cnn2c(NCc3ccc[n+]([O-])c3)cc(N3CCCC[C@H]3CCO)nc12 [Dinaciclib] (top concentration 1000 nM)	-2.64	-2.74	7.16	-1.54	-4.34	-5.64	-0.34	-7.74	-3.74	-4.04	-7.74	-5.84	-6.24	-7.04	-6.44	-0.24	-5.94	-2.64	-3.64	-10.8
CC(C)c1c(C(=O)Nc2ccccc2)c(-c2ccccc2)c(-c2ccc(F)cc2)n1CC[C@@H](O)C[C@@H](O)CC(=O)O [Atorvastatin] (top concentration 10000 nM)	-2.4	-2.1	-1	1.2	-1.5	-3.7	3.5	-3.7	0	0.1	-2.5	-2.1	0.1	-3.7	0.7	2	-1	2.9	0.8	-1.6
COc1ccc(Cn2ccc3ccc(C(=O)NO)cc32)cc1 (top concentration 10000 nM)	4.34	6.64	8.04	8.14	0.84	2.84	2.94	-1.06	6.24	0.64	3.44	1.44	-0.86	2.44	2.34	2.24	1.84	1.54	3.64	-0.96
CC1(C)OCCn2c1nc1c(N3CCOCC3)nc(-c3cnc(N)nc3)nc12 [GDC-0084] (top concentration 10000 nM)	8.2	6.1	3	3.7	3.2	2.9	5.1	6	11.2	10.7	5.2	6.9	8.7	2.5	4.1	2	5.6	5.1	5.1	6.6
COc1cccc(OCCCN)c1-c1cc(Nc2cnc(C#N)cn2)n[nH]1 [Prexasertib] (top concentration 10000 nM)	18.4	18.6	19.4	20.7	14.6	17.4	17.5	16.2	20.1	11.4	4.24	20.4	19.4	13.8	19	17.9	16.9	19.2	20.9	8.94
COc1cccc2c1C(=O)c1c(O)c3c(c(O)c1C2=O)C[C@@](O)(C(=O)CO)C[C@@H]3O[C@H]1C[C@H](N)[C@H](O)[C@H](C)O1 [Doxorubicin] (top concentration 1000 nM)	9.88	14.4	13.4	11.3	-0.42	2.78	0.78	7.68	10.4	9.08	-2.12	10.5	-1.92	-1.82	5.08	-3.62	3.08	5.58	11.4	3.18
CS(=O)(=O)c1ccc(C(=O)Nc2ccc(Cl)c(-c3ccccn3)c2)c(Cl)c1 [Vismodegib] (top concentration 10000 nM)	-0.84	-1.14	5.56	-1.14	0.76	-1.14	-1.14	3.96	2.86	0.16	-1.14	-0.44	1.06	-1.14	-1.14	-0.94	-1.14	-1.14	11.3	1.26
O=C(NC1CCNCC1)c1n[nH]cc1NC(=O)c1c(Cl)cccc1Cl [AT7519] (top concentration 10000 nM)	-2.46	-3.46	-4.26	-5.06	-10.8	-10.7	-4.16	-4.46	-2.06	-1.26	-11.4	-7.66	-8.16	-8.16	-8.66	-3.56	-7.16	-7.46	-4.56	-4.16
CC(C)(C)c1cnc(CSc2cnc(NC(=O)C3CCNCC3)s2)o1 [SNS-032] (top concentration 10000 nM)	-2.64	-2.24	-2.24	-3.54	-4.74	-6.54	-2.24	-5.44	2.96	-1.04	-8.64	-4.84	-4.94	-6.04	-5.04	-4.94	-5.34	-4.74	-3.14	-4.54
